The source of these data is patent US20110065632A1, “PHARMACEUTICAL COMPOSITIONS OF SOMATOSTATIN-DOPAMINE CONJUGATES” (priority 2008, published 2011).

As a reminder, the Ki is a measure of affinity in units of concentration, obtained from inhibition or displacement.

Numbered stars: 1 amine (or outer) side, 2 acyl side, 3 side chain; on linkers, the order of the positions; unused ones are H or OH. Bridge positions count the residues as written; N and C are the ends. Square brackets hold non-standard residues; d marks the D form. Peptide text beside a SMILES is read from it. * marks the point of attachment. X3 = CCCN1C[C@H](CSCC(=O)Oc2ccc(C[C@H](N[*:1])C(=O)[*:2])cc2I)C[C@@H]2c3cccc4[nH]cc(c34)C[C@H]21; X1 = CCCN1C[C@H](CSCC(=O)*)C[C@@H]2c3cccc4[nH]cc(c34)C[C@H]21; AEEA = NCCOCCOCC(=O)O

For one test, the target named is T1, hsst1 (Homo sapiens, UniProt P30872).
T1 construct: expressed in transfected cells
T1 sequence (P30872 whole entry): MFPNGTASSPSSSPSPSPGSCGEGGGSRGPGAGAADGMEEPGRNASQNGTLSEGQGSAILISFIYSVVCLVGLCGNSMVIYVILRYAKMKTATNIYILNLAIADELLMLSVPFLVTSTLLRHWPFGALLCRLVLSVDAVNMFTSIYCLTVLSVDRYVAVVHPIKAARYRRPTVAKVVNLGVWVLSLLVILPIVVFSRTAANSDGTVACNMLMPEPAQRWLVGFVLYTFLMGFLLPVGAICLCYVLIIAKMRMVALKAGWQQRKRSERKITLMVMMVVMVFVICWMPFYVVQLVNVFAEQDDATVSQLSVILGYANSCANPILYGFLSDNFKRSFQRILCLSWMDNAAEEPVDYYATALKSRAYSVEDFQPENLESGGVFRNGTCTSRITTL
The experiment in a line: Somatostatin receptor radioligand binding assay, hsst1. Conditions: CHO-K1 membranes, [125I-Tyr11]SS-14; read-out: hsst1 Ki. On the procedure:
(§1) Specificity and selectivity of the somatostatin analogues used to synthesize the somatostatin-dopamine chimers were determined by a radioligand binding assay on CHO-K1 cells stably transfected with each of the SSTR subtypes, as follows. Somatostatin analogs are also described in U.S. Patent Application Publication No. 02210006790. The complete coding sequences of genomic fragments of the SSTR 1 (e.g., Genbank accession No. M81829), SSTR 2 (e.g., Genbank accession No. M81830), SSTR 3 (e.g., Genbank accession No. L07062), and SSTR 4 (e.g., Genbank accession No. AL049651) genes and a cDNA clone for SSTR 5 (e.g., Genbank accession No. D16827) was subcloned into the mammalian expression vector pCMV (Life Technologies, Milano, Italy). Other SSTR sequences are known to the skilled artisan. Clonal cell lines stably expressing SSTR's 1-5 were obtained by transfection into CHO-K1 cells (ATCC, Manassas, Va., USA) using the calcium phosphate co-precipitation method (Davis L, et al., 1994 In: Basic methods in Molecular Biology, 2nd edition, Appleton & Lange, Norwalk, Conn., USA: 611-646). The plasmid pRSV-neo (ATCC) was included as a selectable marker. Clonal cell lines were selected in RPMI 1640 media containing 0.5 mg/mL of G418 (Life Technologies, Milano, Italy), ring cloned, and expanded into culture.
(§2) Membranes for in vitro receptor binding assays were obtained by homogenizing the CHO-K1 cells expressing the SSTR's subtypes in ice-cold 50 mM Tris-HCl and centrifuging twice at 39,000 g (10 min), with an intermediate resuspension in fresh buffer. The final pellets were resuspended in 10 mM Tris-HCl for assay.
(§3) For the SSTR 1, 3, 4, and 5 assays, aliquots of the membrane preparations were incubated 90 minutes at 25° C. with 0.05 nM [^125I-Tyr11]SS-14 in 50 mM HEPES (pH 7.4) containing 10 mg/mL BSA, 5 mM MgCl2, 200 KIU/mL Trasylol, 0.02 mg/mL bacitracin, and 0.02 mg/mL phenylmethylsuphonyl fluoride. The final assay volume was 0.3 mL.
(§4) For the SSTR 2 assay, 0.05 nM [^125I]MK-678 was employed as the radioligand and the incubation time was 90 minutes at 25° C. The incubations were terminated by rapid filtration through GF/C glass microfiber filters (Whatman Co.) (pre-soaked in 0.3% polyethylenimine) using a BRANDEL filtration manifold. Each tube and filter was washed three times with 5 mL aliquots of ice-cold buffer. Specific binding was defined as the total radioligand bound minus that bound in the presence of 1000 nM SS-14 for SSTR 1, 3, 4, and 5, or 1000 nM MK-678 for SSTR2.
(§5) Using the discussed assays, the inhibition constants (Ki) for the five human somatostatin receptors (hSSTR1-hSSTR5) and the dopamine-2 receptor (hUTII and hDA2) were measured for the exemplified somatostatin-dopamine conjugates, as follows: […]

A further test deals with T2, hsst2 (Homo sapiens, UniProt P30874).
T2 construct: expressed in transfected cells
T2 sequence (P30874 whole entry): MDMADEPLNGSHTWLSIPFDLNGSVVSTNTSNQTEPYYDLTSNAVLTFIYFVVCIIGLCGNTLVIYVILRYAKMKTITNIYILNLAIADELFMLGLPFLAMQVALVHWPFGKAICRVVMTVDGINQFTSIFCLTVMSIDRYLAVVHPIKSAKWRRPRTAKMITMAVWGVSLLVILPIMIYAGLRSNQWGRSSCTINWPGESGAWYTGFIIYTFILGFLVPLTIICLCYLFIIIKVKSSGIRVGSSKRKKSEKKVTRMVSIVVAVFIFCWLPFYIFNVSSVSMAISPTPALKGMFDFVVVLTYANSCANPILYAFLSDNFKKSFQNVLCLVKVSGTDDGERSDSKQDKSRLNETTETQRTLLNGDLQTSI
Description: Somatostatin receptor radioligand binding assay, hsst2. The conditions noted are these: CHO-K1 membranes, [125I]MK-678; read-out: hsst2 Ki. On the procedure:
as §1, §2, §4

The next test addresses T3, hsst3 (Homo sapiens, UniProt P32745).
T3 construct: expressed in transfected cells
The experiment in a line: Somatostatin receptor radioligand binding assay, hsst3. The conditions noted are these: CHO-K1 membranes, [125I-Tyr11]SS-14; read-out: hsst3 Ki. The procedure:
as §1, §2, §3, §4, §5

Another test has as its target T4, hsst5 (Homo sapiens, UniProt P35346).
T4 construct: expressed in transfected cells
The experiment in a line: Somatostatin receptor radioligand binding assay, hsst5. The conditions noted are these: CHO-K1 membranes, [125I-Tyr11]SS-14; read-out: hsst5 Ki. The procedure: as §1, §2, §3, §4

A further test addresses T5, hUTII (Homo sapiens, UniProt Q9UKP6).
T5 sequence (Q9UKP6 1-389): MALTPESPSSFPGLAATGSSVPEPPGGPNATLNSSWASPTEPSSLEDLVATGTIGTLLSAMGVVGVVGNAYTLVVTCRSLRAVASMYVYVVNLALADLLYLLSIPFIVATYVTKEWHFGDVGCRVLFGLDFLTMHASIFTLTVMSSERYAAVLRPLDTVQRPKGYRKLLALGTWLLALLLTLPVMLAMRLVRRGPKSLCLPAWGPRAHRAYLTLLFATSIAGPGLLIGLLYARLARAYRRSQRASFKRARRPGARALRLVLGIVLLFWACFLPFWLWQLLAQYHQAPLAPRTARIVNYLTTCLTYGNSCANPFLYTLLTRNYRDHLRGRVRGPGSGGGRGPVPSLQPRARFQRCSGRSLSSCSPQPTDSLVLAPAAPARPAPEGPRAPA
The experiment in a line: hUTII inhibition constant. The class given is binding. Conditions: read-out: hUTII Ki. The procedure: as §5

A further test has as its target hDA2. Description: Dopamine-2 receptor radioligand binding assay. Also on record: species or system human. The conditions noted are these: [3H]spiperone. On the procedure: Specificity and selectivity for the dopamine-2 receptor of the dopamine analogues used to synthesize the somatostatin-dopamine chimers may be determined by a radioligand binding assay as follows.
Crude membranes were prepared by homogenization of frozen rat corpus striatum (Zivic Laboratories, Pittsburgh, Pa., USA) in 20 mL of ice-cold 50 mM Tris-HCl with a Brinkman Polytron cell disrupter (setting 6, 15 sec). Buffer was added to obtain a final volume of 40 mL, and the homogenate was centrifuged in a Sorval SS-34 rotor at 39,000 g for 10 minutes at 0-4° C. The resulting supernatant was decanted and discarded. The pellet was rehomogenized in ice-cold buffer, pre-incubated at 37° C. for 10 min, diluted, and centrifuged as before. The final pellet was resuspended in buffer and held on ice for the receptor binding assay.
For assay, aliquots of the washed membrane preparations and test compounds were incubated for 15 minutes (37° C.) with 0.25 nM [^3HI]spiperone (16.5 Ci.mmol, New England Nuclear, Boston, Mass., USA) in 50 mM Tris HCl, 120 mM NaCl, 5 mM KCl, 2 mM CaCl2, 1 mM MgCl2. The final assay volume was 1.0 mL. The incubations were terminated by rapid filtration through GF/B glass fibre filters using a Brandel filtration manifold. Each tube and filter was then washed three times with 5-mL aliquots of ice-cold buffer. Specific binding was defined as the total radioligand bound minus that bound in the presence of 1000 nM (+) butaclamol.
as §5

T4 sequence (P35346 whole entry): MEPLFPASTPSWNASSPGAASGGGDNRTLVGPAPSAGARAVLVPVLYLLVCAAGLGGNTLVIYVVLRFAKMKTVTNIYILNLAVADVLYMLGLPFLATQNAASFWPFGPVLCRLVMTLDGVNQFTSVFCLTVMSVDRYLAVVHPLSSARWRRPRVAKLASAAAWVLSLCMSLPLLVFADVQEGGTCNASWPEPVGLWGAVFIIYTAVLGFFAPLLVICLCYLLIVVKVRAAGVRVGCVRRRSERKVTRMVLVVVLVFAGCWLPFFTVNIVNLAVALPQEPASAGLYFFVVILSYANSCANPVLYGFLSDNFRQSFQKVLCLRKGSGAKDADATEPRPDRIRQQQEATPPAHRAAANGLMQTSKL
T3 sequence (P32745 whole entry): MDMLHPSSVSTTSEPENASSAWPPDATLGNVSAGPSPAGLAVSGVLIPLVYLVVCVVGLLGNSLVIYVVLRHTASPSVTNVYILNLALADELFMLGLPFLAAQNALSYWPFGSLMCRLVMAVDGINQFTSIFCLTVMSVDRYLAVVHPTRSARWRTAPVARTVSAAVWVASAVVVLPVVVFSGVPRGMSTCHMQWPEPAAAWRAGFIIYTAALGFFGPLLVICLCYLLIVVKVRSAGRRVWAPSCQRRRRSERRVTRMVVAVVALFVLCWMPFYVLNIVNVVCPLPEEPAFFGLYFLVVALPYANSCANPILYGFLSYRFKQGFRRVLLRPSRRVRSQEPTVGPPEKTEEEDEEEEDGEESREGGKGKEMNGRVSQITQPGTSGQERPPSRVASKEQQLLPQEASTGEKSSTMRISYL

For `CCCN1C[C@H](CSCC(=O)N[C@H](Cc2ccccc2)C(=O)NCCOCCOCC(=O)N[C@H](Cc2ccccc2)C(=O)N[C@H]2CSSC[C@@H](C(=O)N[C@H](C(N)=O)[C@@H](C)O)NC(=O)[C@H](C(C)C)NC(=O)[C@H](CCCCN)NC(=O)[C@@H](Cc3c[nH]c4ccccc34)NC(=O)[C@H](Cc3ccc(OC(=O)CSC[C@@H]4C[C@@H]5c6cccc7[nH]cc(c67)C[C@H]5N(CCC)C4)c(I)c3)NC2=O)C[C@@H]2c3cccc4[nH]cc(c34)C[C@H]21` [Example 5] (X1-[dF][AEEA][dF]C[X3][dW]KVCT-NH2; disulfide 4-9), the inhibition constant (Ki) on hsst1 stood at 1000 nM; on hsst2, 1.65 nM; on hsst3 it was 1050 nM; on hsst5, 27.6 nM; on hUTII, 105 nM; on hDA2, 15.5 nM.
`C=CCN1C[C@H](C(=O)N(CCCN(C)CC(=O)N[C@H](Cc2ccccc2)C(=O)N[C@H]2CSSC[C@@H](C(=O)N[C@H](C(N)=O)[C@@H](C)O)NC(=O)[C@H](CC)NC(=O)[C@H](CCCCN)NC(=O)[C@@H](Cc3c[nH]c4ccccc34)NC(=O)[C@H](Cc3ccc(O)cc3)NC2=O)C(=O)NCC)C[C@@H]2c3cccc4[nH]cc(c34)C[C@H]21` [Example 6]: the Ki on hsst1 turned out to be 509 nM; at hsst2 it was 0.51 nM; on hsst3 it was 798 nM; at hsst5 it was 56.5 nM; at hUTII, 677 nM; on hDA2, 65 nM.
As for `CCCN1C[C@H](CSCC(=O)N[C@H](Cc2ccccc2)C(=O)N[C@H]2CSSC[C@@H](C(=O)N[C@H](C(N)=O)[C@@H](C)O)NC(=O)[C@H]([C@@H](C)O)NC(=O)[C@H](CCCCN)NC(=O)[C@@H](Cc3c[nH]c4ccccc34)NC(=O)[C@H](Cc3ccc(O)c(I)c3)NC2=O)C[C@@H]2c3cccc4[nH]cc(c34)C[C@H]21` [Example 12], the inhibition constant (Ki) at hsst1 is 602 nM; at hsst3, 51.5 nM; at hsst5 it was 4.1 nM; on hUTII, 676 nM; at hDA2 it was 25.2 nM.
For the compound `CCCN1C[C@H](CSCC(=O)NCCCC[C@@H](NC(=O)CSC[C@@H]2C[C@@H]3c4cccc5[nH]cc(c45)C[C@H]3N(CCC)C2)C(=O)N[C@H](Cc2ccccc2)C(=O)N[C@H]2CSSC[C@@H](C(=O)N[C@H](C(N)=O)[C@@H](C)O)NC(=O)[C@H]([C@@H](C)O)NC(=O)[C@H](CCCCN)NC(=O)[C@@H](Cc3c[nH]c4ccccc34)NC(=O)[C@H](Cc3ccc(O)c(I)c3)NC2=O)C[C@@H]2c3cccc4[nH]cc(c34)C[C@H]21` [Example 13], the Ki was 907 nM on hsst1, 196 nM at hsst3, 10.7 nM at hsst5 and 15.2 nM at hDA2.
As to `CCCN1C[C@H](CSCC(=O)NCCCC[C@@H](NC(C)=O)C(=O)N[C@H](Cc2ccccc2)C(=O)N[C@H]2CSSC[C@@H](C(=O)N[C@H](C(N)=O)[C@@H](C)O)NC(=O)[C@H]([C@@H](C)O)NC(=O)[C@H](CCCCN)NC(=O)[C@@H](Cc3c[nH]c4ccccc34)NC(=O)[C@H](Cc3ccc(O)c(I)c3)NC2=O)C[C@@H]2c3cccc4[nH]cc(c34)C[C@H]21` [Example 14], the Ki stood at 1340 nM at hsst1; 70.3 nM on hsst3; 2.68 nM on hsst5; 1510 nM on hUTII; 44.3 nM on hDA2.
Regarding `CCCN1C[C@H](CSCC(=O)N[C@H](Cc2ccccc2)C(=O)N[C@H]2CSSC[C@@H](C(=O)N[C@H](C(N)=O)[C@@H](C)O)NC(=O)[C@H](C(C)C)NC(=O)[C@H](CCCCN)NC(=O)[C@@H](Cc3c[nH]c4ccccc34)NC(=O)[C@H](Cc3ccc(O)c(I)c3)NC2=O)C[C@@H]2c3cccc4[nH]cc(c34)C[C@H]21` [Example 26], the Ki on hsst1 is 731 nM; on hsst2, 0.4 nM; on hsst3, 135 nM; at hUTII, 53.2 nM; at hDA2, 34 nM.
